≈ marks a conversion by molar mass, not a printed value.
Assays:
Assay type in all cases: functional
Acinetobacter baumannii [1] = test: Antimicrobial activity against Acinetobacter baumannii ATCC 19606 incubated for 18 hrs by broth microdilution method
Acinetobacter baumannii [2] = test: Synergistic antimicrobial activity against Acinetobacter baumannii ATCC 19606 assessed as fractional inhibitory concentration index in presence of polymyxin E incubated for 18 to 20 hrs by chequerboard assay; conditions: time 18-20 hrs
Staphylococcus aureus = test: Antimicrobial activity against methicillin/ofloxacin-resistant Staphylococcus aureus ATCC 43300 assessed as minimum inhibitory concentration incubated for 18 hrs by broth microdilution method
Enterococcus faecalis = test: Antimicrobial activity against vancomycin-resistant Enterococcus faecalis ATCC 51299 assessed as minimum inhibitory concentration incubated for 18 hrs by broth microdilution method
Bacillus subtilis = test: Antimicrobial activity against Bacillus subtilis ATCC 20678 incubated for 18 hrs by broth microdilution method

| Compound | MIC (Acinetobacter baumannii [1]) | fractional inhibitory concentration index (FICI) (Acinetobacter baumannii [2]) | MIC (Staphylococcus aureus) | MIC (Enterococcus faecalis) | MIC (Bacillus subtilis) |
| --- | --- | --- | --- | --- | --- |
| Fc1ccc(-c2csc(Nc3ccccc3C(F)(F)F)n2)c(F)c1 | > 256 µg/mL | 0.156 | 8 µg/mL (≈ 22.5 µM) | 4 µg/mL (≈ 11.2 µM) | 8 µg/mL (≈ 22.5 µM) |
| C/C(=N\NC1=NCCN1)c1csc(Nc2cc(F)cc(C(F)(F)F)c2)n1 | > 256 µg/mL | 0.75 | 16 µg/mL (≈ 41.4 µM) | 16 µg/mL (≈ 41.4 µM) | 8 µg/mL (≈ 20.7 µM) |
| COc1ccc(Nc2nc(-c3ccc(F)cc3F)cs2)cc1C(F)(F)F | > 256 µg/mL | 0.094 | 8 µg/mL (≈ 20.7 µM) | 8 µg/mL (≈ 20.7 µM) | 4 µg/mL (≈ 10.4 µM) |
| Fc1ccc(-c2csc(Nc3ccc(C(F)(F)F)cc3F)n2)c(F)c1 | > 256 µg/mL | 1.031 | 256 µg/mL (≈ 684 µM) | 256 µg/mL (≈ 684 µM) | 256 µg/mL (≈ 684 µM) |
| O=C(Nc1ccccn1)c1csc(Nc2cc(F)cc(C(F)(F)F)c2)n1 | 64 µg/mL (≈ 167 µM) | 0.281 | 256 µg/mL (≈ 670 µM) | 256 µg/mL (≈ 670 µM) | 256 µg/mL (≈ 670 µM) |
| Fc1cc(Nc2nc(-c3cccs3)cs2)cc(C(F)(F)F)c1 | > 256 µg/mL | 0.187 | 64 µg/mL (≈ 186 µM) | 8 µg/mL (≈ 23.2 µM) | 4 µg/mL (≈ 11.6 µM) |
| C/C(=N\Nc1ncccc1Cl)c1csc(Nc2cc(F)cc(C(F)(F)F)c2)n1 | 128 µg/mL (≈ 298 µM) | 0.094 | 2 µg/mL (≈ 4.65 µM) | 4 µg/mL (≈ 9.31 µM) | 1 µg/mL (≈ 2.33 µM) |
| C/C(=N\Nc1cnccn1)c1csc(Nc2cc(F)cc(C(F)(F)F)c2)n1 | 128 µg/mL (≈ 323 µM) | 0.75 | 64 µg/mL (≈ 161 µM) | 128 µg/mL (≈ 323 µM) | 256 µg/mL (≈ 646 µM) |
| CS(=O)(=O)c1ccc(Nc2nc(-c3ccc(F)cc3F)cs2)cc1 | > 256 µg/mL | 1.031 | 256 µg/mL (≈ 699 µM) | 256 µg/mL (≈ 699 µM) | 256 µg/mL (≈ 699 µM) |
| Fc1cc(Nc2nc(C3CCOCC3)cs2)cc(C(F)(F)F)c1 | > 256 µg/mL | 1.031 | 64 µg/mL (≈ 185 µM) | 128 µg/mL (≈ 370 µM) | 64 µg/mL (≈ 185 µM) |
| C/C(=N\Nc1ccc(C(=O)O)cn1)c1csc(Nc2cc(F)cc(C(F)(F)F)c2)n1 | > 256 µg/mL | 1.031 | 64 µg/mL (≈ 146 µM) | 128 µg/mL (≈ 291 µM) | 64 µg/mL (≈ 146 µM) |
| Fc1ccc(-c2csc(Nc3ccncc3)n2)c(F)c1 | 128 µg/mL (≈ 442 µM) | 1.031 | 4 µg/mL (≈ 13.8 µM) | 32 µg/mL (≈ 111 µM) | 4 µg/mL (≈ 13.8 µM) |
| CC(C)(C)c1csc(Nc2cc(F)cc(C(F)(F)F)c2)n1 | > 256 µg/mL | 0.156 | 8 µg/mL (≈ 25.1 µM) | 8 µg/mL (≈ 25.1 µM) | 4 µg/mL (≈ 12.6 µM) |
| Cc1cc(C(F)(F)F)ccc1Nc1nc(-c2ccc(F)cc2F)cs1 | > 256 µg/mL | 0.094 | 256 µg/mL (≈ 691 µM) | 256 µg/mL (≈ 691 µM) | 4 µg/mL (≈ 10.8 µM) |
| Fc1cc(Nc2nc(-c3cccnc3)cs2)cc(C(F)(F)F)c1 | 128 µg/mL (≈ 377 µM) | 1.031 | 64 µg/mL (≈ 189 µM) | 256 µg/mL (≈ 754 µM) | 256 µg/mL (≈ 754 µM) |
| Fc1ccc(-c2csc(Nc3cccnc3)n2)c(F)c1 | 128 µg/mL (≈ 442 µM) | 1.031 | 128 µg/mL (≈ 442 µM) | 256 µg/mL (≈ 885 µM) | 256 µg/mL (≈ 885 µM) |
| Fc1ccc(-c2csc(Nc3ccc(C(F)(F)F)cc3Cl)n2)c(F)c1 | > 256 µg/mL | 1.031 | 256 µg/mL (≈ 655 µM) | 256 µg/mL (≈ 655 µM) | 256 µg/mL (≈ 655 µM) |
| Fc1ccc(-c2csc(Nc3c(Cl)cc(C(F)(F)F)cc3Cl)n2)c(F)c1 | > 256 µg/mL | 1.031 | 256 µg/mL (≈ 602 µM) | 256 µg/mL (≈ 602 µM) | 256 µg/mL (≈ 602 µM) |

| Compound | MIC (Acinetobacter baumannii [1]) | fractional inhibitory concentration index (FICI) (Acinetobacter baumannii [2]) | MIC (Staphylococcus aureus) | MIC (Enterococcus faecalis) | MIC (Bacillus subtilis) |
| --- | --- | --- | --- | --- | --- |
| Fc1cc(Nc2nc(-c3ccc(F)cc3F)cs2)cc(C(F)(F)F)c1 | > 256 µg/mL | 0.062 | 2 µg/mL (≈ 5.34 µM) | 2 µg/mL (≈ 5.34 µM) | 2 µg/mL (≈ 5.34 µM) |
| CCOc1ccc(Nc2nc(-c3ccc(F)cc3F)cs2)cc1C(F)(F)F | > 256 µg/mL | 0.094 | 8 µg/mL (≈ 20 µM) | 4 µg/mL (≈ 9.99 µM) | 4 µg/mL (≈ 9.99 µM) |
| Fc1cc(Nc2nc(-c3ccncc3)cs2)cc(C(F)(F)F)c1 | 128 µg/mL (≈ 377 µM) | 1.031 | 64 µg/mL (≈ 189 µM) | 256 µg/mL (≈ 754 µM) | 256 µg/mL (≈ 754 µM) |
| Oc1ccc(Nc2nc(-c3ccc(F)cc3F)cs2)cc1C(F)(F)F | > 256 µg/mL | 0.187 | 4 µg/mL (≈ 10.7 µM) | 2 µg/mL (≈ 5.37 µM) | 2 µg/mL (≈ 5.37 µM) |
| Fc1cc(Nc2nc(-c3ccccn3)cs2)cc(C(F)(F)F)c1 | 64 µg/mL (≈ 189 µM) | 0.078 | 1 µg/mL (≈ 2.95 µM) | 64 µg/mL (≈ 189 µM) | 0.5 µg/mL (≈ 1.47 µM) |
| COc1cc(Nc2nc(-c3ccc(F)cc3F)cs2)ccc1C(F)(F)F | > 256 µg/mL | 0.187 | 2 µg/mL (≈ 5.18 µM) | 2 µg/mL (≈ 5.18 µM) | 2 µg/mL (≈ 5.18 µM) |
| Fc1ccc(-c2csc(Nc3cc(C(F)(F)F)cc(C(F)(F)F)c3)n2)c(F)c1 | > 256 µg/mL | 0.094 | 4 µg/mL (≈ 9.43 µM) | 4 µg/mL (≈ 9.43 µM) | 4 µg/mL (≈ 9.43 µM) |
| C/C(=N\NC(=N)N)c1csc(Nc2cc(F)cc(C(F)(F)F)c2)n1 | > 256 µg/mL | 0.75 | 8 µg/mL (≈ 22.2 µM) | 8 µg/mL (≈ 22.2 µM) | 4 µg/mL (≈ 11.1 µM) |
| Fc1cc(Nc2nc(-c3cc4ccccc4o3)cs2)cc(C(F)(F)F)c1 | > 256 µg/mL | 0.187 | 1 µg/mL (≈ 2.64 µM) | 2 µg/mL (≈ 5.29 µM) | 2 µg/mL (≈ 5.29 µM) |
| COc1cc(Nc2nc(-c3ccc(F)cc3F)cs2)cc(C(F)(F)F)c1 | > 128 µg/mL | 0.187 | 256 µg/mL (≈ 663 µM) | 256 µg/mL (≈ 663 µM) | 2 µg/mL (≈ 5.18 µM) |
| Fc1ccc(-c2csc(Nc3cccc(C(F)(F)F)c3)n2)c(F)c1 | > 256 µg/mL | 0.094 | 4 µg/mL (≈ 11.2 µM) | 2 µg/mL (≈ 5.61 µM) | 2 µg/mL (≈ 5.61 µM) |
| C/C(=N\Nc1cc(O)ncn1)c1csc(Nc2cc(F)cc(C(F)(F)F)c2)n1 | > 256 µg/mL | 0.562 | 128 µg/mL (≈ 310 µM) | 256 µg/mL (≈ 621 µM) | 256 µg/mL (≈ 621 µM) |
| Fc1cc(Nc2nc(-c3ccco3)cs2)cc(C(F)(F)F)c1 | > 256 µg/mL | 0.187 | 8 µg/mL (≈ 24.4 µM) | 8 µg/mL (≈ 24.4 µM) | 4 µg/mL (≈ 12.2 µM) |
| Fc1ccc(-c2csc(Nc3ccccn3)n2)c(F)c1 | 64 µg/mL (≈ 221 µM) | 1.031 | 256 µg/mL (≈ 885 µM) | 256 µg/mL (≈ 885 µM) | 256 µg/mL (≈ 885 µM) |
| C/C(=N\Nc1ccccc1)c1csc(Nc2cc(F)cc(C(F)(F)F)c2)n1 | 64 µg/mL (≈ 162 µM) | 0.375 | 16 µg/mL (≈ 40.6 µM) | 16 µg/mL (≈ 40.6 µM) | 16 µg/mL (≈ 40.6 µM) |
| Fc1ccc(-c2csc(Nc3ccc(Cl)c(C(F)(F)F)c3)n2)c(F)c1 | > 256 µg/mL | 0.094 | 1 µg/mL (≈ 2.56 µM) | 2 µg/mL (≈ 5.12 µM) | 1 µg/mL (≈ 2.56 µM) |
| Fc1ccc(-c2csc(Nc3cc(Cl)cc(C(F)(F)F)c3)n2)c(F)c1 | > 256 µg/mL | 0.156 | 4 µg/mL (≈ 10.2 µM) | 2 µg/mL (≈ 5.12 µM) | 4 µg/mL (≈ 10.2 µM) |

Reference: ChEMBL document CHEMBL6127088, “Novel 2-aminothiazole analogues both as polymyxin E synergist and antimicrobial agent against multidrug-resistant Gram-positive bacteria” (2024)
